Experimental data taken from patent publication US4423215A, “Method of preparing sodium salts of imidazoledicarboxylic acid substituted cephalosporin derivatives” (Ajinomoto Company, Inc., priority 1981, dated 1983).
Counter-ions that a name gives are not always drawn. Like-named read-outs stand apart in the source and are kept apart here.

Assay: Acute toxicity, LD50 (mouse, i.v.)
Format: in vivo

| SMILES | LD50 (disodium salt) | LD50 [mg/kg] |
| --- | --- | --- |
| O=C(O)C1=C(C[n+]2ccc(CCS(=O)(=O)[O-])cc2)CS[C@@H]2[C@H](NC(=O)[C@H](NC(=O)c3[nH]cnc3C(=O)O)c3ccccc3)C(=O)N12 [disodium salt, 7B-[D--(-)-α-(4-carboxyimidazole-5-carboxyamide)-phenylacetamide]-3-(4-β-sulfoethyl-pyridinium)-methyl-3-cepham-4-carboxylic acid, disodium salt] | more than 3 g/kg |  |
| O=C(O)C1=C(C[n+]2ccc(CCS(=O)(=O)[O-])cc2)CS[C@@H]2[C@H](NC(=O)[C@H](NC(=O)c3[nH]cnc3C(=O)O)c3ccccc3)C(=O)N12 [dipotassium salt, 7B-[D--(-)-α-(4-carboxyimidazole-5-carboxyamide)-phenylacetamide]-3-(4-β-sulfoethyl-pyridinium)-methyl-3-cepham-4-carboxylic acid] |  | 500 to 1000 |
